Laboratory results: ChEMBL document CHEMBL1142714, “Synthesis and pharmacological evaluation of huprine-tacrine heterodimers: subnanomolar dual binding site acetylcholinesterase inhibitors” (J Med Chem, 2005)

How the values were obtained:
[1] = target: T1, Acetylcholinesterase (Bos taurus, UniProt P23795); assay: Inhibitory concentration against Acetylcholinesterase from bovine erythrocytes after 45 min incubation
T1 sequence (P23795 whole entry): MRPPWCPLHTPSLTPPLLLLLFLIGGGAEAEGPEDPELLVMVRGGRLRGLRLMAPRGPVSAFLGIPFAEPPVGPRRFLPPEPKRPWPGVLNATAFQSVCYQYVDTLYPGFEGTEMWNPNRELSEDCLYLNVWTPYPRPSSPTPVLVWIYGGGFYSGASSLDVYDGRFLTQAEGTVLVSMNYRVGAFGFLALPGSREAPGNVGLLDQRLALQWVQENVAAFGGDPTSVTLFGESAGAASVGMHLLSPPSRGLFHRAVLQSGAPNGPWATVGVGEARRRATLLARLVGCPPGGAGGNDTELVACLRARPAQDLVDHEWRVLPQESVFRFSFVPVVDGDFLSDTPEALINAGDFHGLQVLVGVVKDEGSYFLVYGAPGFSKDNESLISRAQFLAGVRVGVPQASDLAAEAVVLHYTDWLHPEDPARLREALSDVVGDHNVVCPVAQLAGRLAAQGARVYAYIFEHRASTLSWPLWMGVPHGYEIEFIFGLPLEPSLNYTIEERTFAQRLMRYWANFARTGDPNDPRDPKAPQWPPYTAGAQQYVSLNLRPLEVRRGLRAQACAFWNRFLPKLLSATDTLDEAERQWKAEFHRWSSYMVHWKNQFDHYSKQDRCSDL

[2] = target: Acetylcholinesterase (Homo sapiens, UniProt P22303)
Chain of Acetylcholinesterase (Homo sapiens, UniProt P22303) (P22303 whole entry): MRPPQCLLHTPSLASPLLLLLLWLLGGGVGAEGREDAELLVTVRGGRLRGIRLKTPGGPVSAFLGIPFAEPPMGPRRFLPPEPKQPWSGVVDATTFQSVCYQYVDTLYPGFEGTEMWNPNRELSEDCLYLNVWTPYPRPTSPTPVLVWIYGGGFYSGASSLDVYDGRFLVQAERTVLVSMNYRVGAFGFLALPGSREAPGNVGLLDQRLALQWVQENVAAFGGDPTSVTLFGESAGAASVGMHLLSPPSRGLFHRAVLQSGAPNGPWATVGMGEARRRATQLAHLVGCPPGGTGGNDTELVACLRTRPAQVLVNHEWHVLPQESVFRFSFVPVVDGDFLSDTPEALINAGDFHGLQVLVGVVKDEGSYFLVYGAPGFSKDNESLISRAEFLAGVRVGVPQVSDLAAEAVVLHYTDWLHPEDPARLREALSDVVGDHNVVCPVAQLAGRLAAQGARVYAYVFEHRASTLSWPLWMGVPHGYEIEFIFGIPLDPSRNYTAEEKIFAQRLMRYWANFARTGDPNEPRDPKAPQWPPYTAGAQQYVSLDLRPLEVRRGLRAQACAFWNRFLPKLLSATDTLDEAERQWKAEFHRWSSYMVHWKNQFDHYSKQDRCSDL
Description: Inhibitory concentration against Acetylcholinesterase from human erythrocytes

[3] = target: Cholinesterase (Homo sapiens, UniProt P06276)
Chain of Cholinesterase (P06276 whole entry): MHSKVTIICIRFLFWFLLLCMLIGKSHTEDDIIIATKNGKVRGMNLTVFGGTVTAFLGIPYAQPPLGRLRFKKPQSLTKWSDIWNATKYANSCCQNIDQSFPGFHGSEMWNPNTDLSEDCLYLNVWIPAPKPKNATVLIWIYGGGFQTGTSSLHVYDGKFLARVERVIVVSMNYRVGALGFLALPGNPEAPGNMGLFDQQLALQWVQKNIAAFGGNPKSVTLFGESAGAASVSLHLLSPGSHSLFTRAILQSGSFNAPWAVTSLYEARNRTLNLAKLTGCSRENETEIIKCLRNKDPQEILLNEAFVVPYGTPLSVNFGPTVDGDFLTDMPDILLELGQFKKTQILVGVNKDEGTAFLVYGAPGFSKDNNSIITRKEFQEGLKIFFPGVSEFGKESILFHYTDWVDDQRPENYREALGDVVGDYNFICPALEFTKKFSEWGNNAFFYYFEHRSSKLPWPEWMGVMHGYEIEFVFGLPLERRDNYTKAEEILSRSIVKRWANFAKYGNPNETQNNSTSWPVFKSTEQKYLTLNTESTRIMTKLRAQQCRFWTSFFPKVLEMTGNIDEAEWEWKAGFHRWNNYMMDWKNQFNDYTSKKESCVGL
Description: Inhibitory concentration against Butyrylcholinesterase from human erythrocytes

[4] = target: T1, Acetylcholinesterase

| SMILES | IC50 [1] [pM] | IC50 [2] [pM] | IC50 [3] [pM] | IC50 [4] [pM] |
| --- | --- | --- | --- | --- |
| CC1=C[C@@H]2Cc3nc4cc(Cl)ccc4c(NCCCN(C)CCCCNc4c5c(nc6cc(Cl)ccc46)CCCC5)c3[C@H](C1)C2 | 440 | 290 | 31100 | 540 |
| CC1=CC2Cc3nc4cc(Cl)ccc4c(NCCCCCCNc4c5c(nc6ccccc46)CCCC5)c3C(C1)C2 (stereo unspecified) | 270 | 500 | 7690 | 400 |
| CC1=CC2Cc3nc4cc(Cl)ccc4c(NCCCCCCCCNc4c5c(nc6ccccc46)CCCC5)c3C(C1)C2 (stereo unspecified) | 650 | 330 | 4740 | 1260 |
| CCC1=CC2Cc3nc4ccccc4c(NCCCCCCCCNc4c5c(nc6ccccc46)CCCC5)c3C(C1)C2 (stereo unspecified) | 1670 | 820 | 5550 | 2190 |
| CC1=CC2Cc3nc4cc(Cl)ccc4c(NCCCCCCCCNc4c5c(nc6cc(Cl)ccc46)CCCC5)c3C(C1)C2 (stereo unspecified) | 1310 | 400 | 7800 | 2090 |
| CC1=CC2Cc3nc4cc(Cl)ccc4c(NCCCCCCCNc4c5c(nc6ccccc46)CCCC5)c3C(C1)C2 (stereo unspecified) | 360 | 340 | 6700 | 480 |
| CC1=CC2Cc3nc4cc(Cl)ccc4c(NCCCCCCNc4c5c(nc6cc(Cl)ccc46)CCCC5)c3C(C1)C2 (stereo unspecified) | 800 | 450 | 14000 | 1060 |
| CC1=C[C@@H]2Cc3nc4cc(Cl)ccc4c(NCCCN(C)CCCCNc4c5c(nc6ccccc46)CCCC5)c3[C@H](C1)C2 | 260 | 320 | 16400 | 330 |
| CC1=CC2Cc3nc4cc(Cl)ccc4c(NCCCCCCCNc4c5c(nc6cc(Cl)ccc46)CCCC5)c3C(C1)C2 (stereo unspecified) | 1600 | 330 | 7380 | 1970 |
